Measurements published in patent US6534516B1, “Androgen receptor modulator compounds and methods” (Ligand Pharmaceuticals Incorporated, priority 1996, dated 2003).
Read-outs that look alike come from different tables or passages of the source.

Key:
human AR = biological target: T1, human AR (Homo sapiens, UniProt P10275); assay: cell-based; settings: read-out: AR Binding Ki
T1 construct: expressed in transfected cells; host or cells: CV-1 cells (African green monkey kidney fibroblasts)
T1 sequence (P10275 1-920): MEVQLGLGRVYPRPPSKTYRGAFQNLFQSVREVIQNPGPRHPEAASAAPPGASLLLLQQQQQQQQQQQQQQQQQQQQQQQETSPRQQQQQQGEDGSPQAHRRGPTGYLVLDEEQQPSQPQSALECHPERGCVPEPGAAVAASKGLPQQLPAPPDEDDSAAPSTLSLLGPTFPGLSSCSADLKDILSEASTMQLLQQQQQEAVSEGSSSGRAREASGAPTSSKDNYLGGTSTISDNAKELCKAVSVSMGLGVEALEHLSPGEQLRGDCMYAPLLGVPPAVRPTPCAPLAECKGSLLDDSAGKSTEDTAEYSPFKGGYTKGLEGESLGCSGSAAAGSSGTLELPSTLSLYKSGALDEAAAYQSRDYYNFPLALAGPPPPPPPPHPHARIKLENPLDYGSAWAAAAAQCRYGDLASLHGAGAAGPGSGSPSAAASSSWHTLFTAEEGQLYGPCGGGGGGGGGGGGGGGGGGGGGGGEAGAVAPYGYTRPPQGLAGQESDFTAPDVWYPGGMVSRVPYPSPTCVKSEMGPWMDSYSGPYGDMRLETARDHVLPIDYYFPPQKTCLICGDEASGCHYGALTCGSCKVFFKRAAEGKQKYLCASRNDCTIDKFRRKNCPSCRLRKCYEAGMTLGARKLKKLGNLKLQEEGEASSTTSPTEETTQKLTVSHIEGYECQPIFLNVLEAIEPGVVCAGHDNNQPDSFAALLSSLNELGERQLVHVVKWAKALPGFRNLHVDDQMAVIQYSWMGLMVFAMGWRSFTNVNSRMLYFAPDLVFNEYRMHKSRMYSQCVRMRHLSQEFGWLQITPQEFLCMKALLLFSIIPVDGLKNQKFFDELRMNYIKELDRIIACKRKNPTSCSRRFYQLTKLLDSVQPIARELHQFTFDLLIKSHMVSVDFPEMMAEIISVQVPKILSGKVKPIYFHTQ

[1] = tested on: immature castrated male rat; assay: Immature castrated male rat model with testosterone silastic implant, ventral prostate and seminal vesicle weights; format: in vivo; settings: for ED50: Rattus norvegicus, po, 72 h; for Seminal Vesicles weight / Ventral Prostate weight: 3 days
Description: The activity of selected compounds of the present invention as AR antagonists was *~ investigated in an immature castrated male rat model. A recognized test of the antiandrogen activity of a given compound, as described in L. G. Hershberger et al., 83 Proc. Soc. Exptl. […] Similar approaches have been used in the rat and in hamsters. […] Dermatol.
The basis of this assay is the fact that male sexual accessory organs, such as the prostate and seminal vesicles, play an important role in reproductive function. […] See F. Labrie et al., 16 Clin. Invest. […] However, this is not a major pathway since, in both animals and humans, castration without concomitant adrenalectomy leads to almost complete involution of the prostate and seminal vesicles. […] See M. C. […] Since the male sex organs are the tissues most responsive to modulation by androgen activity, this model is used to determine the androgen-dependent growth of the sex accessory organs in immature castrated rats.
Immature male rats (50-60 g, 21 day-old Sprague-Dawley, Harlan) were castrated under metofane anesthesia. […] As a negative control, a group of castrated animals received empty 10 mm silastic implants. Animal groups were dosed for 3 days by oral gavage as follows:
At the end of the 3-day treatment, the animals were sacrificed, and the ventral prostates and seminal vesicles were collected and weighed. Organ weight data were normalized to body weight of each animal and expressed as mg/100 g body weight. Results were analyzed by analysis of variance followed by the Dunnett's test. Data were transformed to comply with the normality and variance homogeneity criteria required to utilize the analysis of variance and Dunnett's test. The following data transformations were used for the ventral prostate and seminal vesicle: square root and power 0.7 respectively. Thereafter, the data were fitted to a four-parameter logistic equation and potencies derived from the fitted estimates. The same data transformations were used for the equation-fitting phase of the data analysis.
The gain and loss of sexual organ weights reflect the changes of cell number (DNA content) and cell mass (protein content), depending upon the serum androgen concentrations. […] Therefore, measurement of organ wet weights is sufficient to indicate the bioactivity of androgens and androgen antagonists.

PR = biological target: T2, PR (Homo sapiens, UniProt P06401); assay: cell-based
T2 sequence (P06401 1-933): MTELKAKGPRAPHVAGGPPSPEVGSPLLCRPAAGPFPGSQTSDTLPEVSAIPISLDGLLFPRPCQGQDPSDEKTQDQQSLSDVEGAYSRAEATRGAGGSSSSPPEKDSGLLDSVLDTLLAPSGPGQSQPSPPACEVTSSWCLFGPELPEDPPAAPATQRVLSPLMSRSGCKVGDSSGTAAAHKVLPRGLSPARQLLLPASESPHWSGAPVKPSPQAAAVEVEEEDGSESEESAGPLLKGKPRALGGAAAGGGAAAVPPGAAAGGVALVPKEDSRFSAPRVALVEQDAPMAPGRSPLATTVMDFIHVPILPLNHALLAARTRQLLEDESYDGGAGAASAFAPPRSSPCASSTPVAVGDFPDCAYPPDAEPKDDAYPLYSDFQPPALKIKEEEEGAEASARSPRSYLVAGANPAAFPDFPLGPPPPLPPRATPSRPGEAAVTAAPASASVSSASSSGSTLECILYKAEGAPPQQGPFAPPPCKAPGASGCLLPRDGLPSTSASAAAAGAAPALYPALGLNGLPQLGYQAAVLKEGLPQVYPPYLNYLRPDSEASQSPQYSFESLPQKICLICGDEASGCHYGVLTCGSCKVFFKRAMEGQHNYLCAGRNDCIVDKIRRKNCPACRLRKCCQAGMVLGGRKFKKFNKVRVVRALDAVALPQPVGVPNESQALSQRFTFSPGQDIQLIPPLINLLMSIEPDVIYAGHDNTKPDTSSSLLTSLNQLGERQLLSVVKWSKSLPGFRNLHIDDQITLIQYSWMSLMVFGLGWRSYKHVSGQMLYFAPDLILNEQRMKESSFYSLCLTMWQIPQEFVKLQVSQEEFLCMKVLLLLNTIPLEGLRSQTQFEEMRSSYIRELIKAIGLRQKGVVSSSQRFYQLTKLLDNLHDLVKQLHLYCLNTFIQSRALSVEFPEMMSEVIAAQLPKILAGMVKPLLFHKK

CC1(C)CCc2cc3c(C(F)(F)F)c(F)c(=O)[nH]c3cc2N1 [Compound 105, 7-Fluoro-1,2,3,4-tetrahydro-2,2-dimethyl-6-trifluoromethyl-8-pyridono[5,6-g]quinoline] was tested, and the Ki (human AR) was 21 ± 11 nM, the “suppression of seminal vesicle weight relative to castrate levels (in words)” value ([1]; 30 mg/kg) was “complete suppression to castrate levels” and the “suppression of ventral prostate weight relative to castrate levels (in words)” value ([1]; 30 mg/kg) was “suppresses ventral prostate weight to castrate levels”. For the same compound, the ED50 ([1]; read-out: Potency (ED50) Weighted Average ± SE, Seminal Vesicle Weight) was 7.5 ± 1.3 mg/kg, the ED50 ([1]; read-out: Potency (ED50) Weighted Average ± SE, Ventral Prostate Weight) was 3.1 ± 0.7 mg/kg and the “Seminal Vesicles weight” value ([1]; T implant + 0.1 mg/kg oral) was 28.1 ± 3.6 (5) mg/100 g body weight. The “Ventral Prostate weight” value ([1]; T implant + 0.1 mg/kg oral) was 74.8 ± 5.4 (5) mg/100 g body weight, the “Seminal Vesicles weight” value ([1]; T implant + 1 mg/kg oral) was 27.4 ± 1.7 (5) mg/100 g body weight and the “Ventral Prostate weight” value ([1]; T implant + 1 mg/kg oral) was 63.6 ± 6.6 (5) mg/100 g body weight. For the same compound, the “Seminal Vesicles weight” value ([1]; T implant + 3 mg/kg oral) was 24.9 ± 0.9 (5) mg/100 g body weight, the “Ventral Prostate weight” value ([1]; T implant + 3 mg/kg oral) was 48.4 ± 6.6 (5) mg/100 g body weight and the “Seminal Vesicles weight” value ([1]; T implant + 10 mg/kg oral) was 15.2 ± 0.3 (5) mg/100 g body weight. For the same compound, the “Ventral Prostate weight” value ([1]; T implant + 10 mg/kg oral) was 40.0 ± 1.3 (5) mg/100 g body weight, the “Seminal Vesicles weight” value ([1]; T implant + 30 mg/kg oral) was 7.1 ± 1.4 (5) mg/100 g body weight and the “Ventral Prostate weight” value ([1]; T implant + 30 mg/kg oral) was 24.6 ± 2.0 (5) mg/100 g body weight. For the same compound, the “Seminal Vesicles weight” value ([1]; T implant + 100 mg/kg oral) was 7.6 ± 1.4 (5) mg/100 g body weight, the “Ventral Prostate weight” value ([1]; T implant + 100 mg/kg oral) was 23.6 ± 2.2 (5) mg/100 g body weight and the IC50 (PR) was 160 nM.
